# Assay results reported in patent US20250082633A1, “COMPOUNDS AND METHODS FOR MODULATING SPLICING” (REMIX THERAPEUTICS INC., priority 2021, published 2025).
# Where two headings read alike, the source gives them in different places.
# Tests used:
# Target C = assay: HiBit protein abundance assay, Target C; type: cell-based; settings: Homo sapiens; K562 HiBiT-modified cells, 24 hours, luminescence
# Experimental: Compounds described herein were used to screen for effects on quantitative protein abundance using a HiBit assay system (Promega). Quantitative protein abundance was determined by measuring the protein levels of HiBit-tagged protein targets expressed in cell culture via luminescence using the Nano-Glo HiBiT Lytic Detection System, which uses a split complementation assay format to reconstitute NanoBiT enzyme to generate a luminescent signal. A protein abundance assay was developed such that endogenous protein targets could be modified with the HiBiT peptide tag and their abundance could be assessed after compound treatment. Briefly, K562 cell lines containing a HiBiT-modification were treated with various compounds described herein (e.g., compounds of Formulas (I), (II), or (III)). After treatment for 24 hours, the protein abundance of a specific target was determined by measuring luminescence. • Promega Nano-Glo HiBiT Lytic Detection System (cat #N3030) • Corning 384-well TC-treated microplates (cat #3570) • Synthego Engineered Cells Knock-In Clones Cells were maintained in IMDM with 10% FBS. Before the assay, cells were diluted with phenolphthalein-free growth media (IMDM+1% FBS media) and were seeded in a 384-well plate at a density of 10000 cells/well (for each cell line listed in Table 6). Each compound was prepared as a 10-point 3-fold serial dilution in DMSO with the top dose at a final concentration of 10 μM in the well. Unmodified K562 cells were added at the previously specified density with DMSO to serve as an assay baseline and positive control (PC) and DMSO only with the respective modified cell lines was added to the negative control (NC) columns. Final DMSO concentration was kept at or below 0.25%. Treated cell plates were placed in an incubator at 37° C. with 5% CO2 for 24 hours. After 24 hours, 25 μL of Complete HiBit Lytic reagent was added to each well at room temperature (e.g. one plate requiring 10 mL Lytic Buffer, 100 μL LgBiT Protein, 200 μL Lytic Substrate), shaken for 5 minutes at 600 RPM, then left to sit for 10 minutes for signal to stabilize before reading on a Spark Cyto plate reader (Tecan) with a 500 ms measurement time. To determine compound effects on protein abundance of each target in Table 6, the percent response for each respective cell line was calculated at each compound concentration as follows: For the normalized response at each concentration, a four-parameter logistical regression was fit to the data and the response was interpolated at the 50% value to determine a concentration for protein abundance at 50% (IC50) the untreated control.
# HTT mRNA = assay: RT-qPCR splicing assay, HTT canonical (CJ) and alternative (AJ) junction mRNA; type: cell-based; settings: Homo sapiens; for IC50: read-out: HTT CJ IC50; for AC50: increase in alternative junction mRNA, read-out: HTT AJ AC50
# Experimental: Compounds described herein were used to modulate RNA transcript abundance in cells. The expression of a target mRNA was measured by detecting the formation of an exon-exon junction in the canonical transcript (CJ). A compound mediated exon-inclusion event was detected by observing an increase in formation of a new junction with an alternative exon (AJ). Real-time qPCR assays were used to detect these splicing switches and interrogate the potency of various compounds towards different target genes. A high-throughput real time quantitative PCR (RT-qPCR) assay was developed to measure these two isoforms of the mRNA (CJ and AJ) for exemplary genes, such as HTT, SMN2, and MYB, together with a control housekeeping gene, GAPDH or GUSB or PPIA, used for normalization. Briefly, the A673 or K562 cell line was treated with various compounds described herein (e.g., compounds of Formula (I)). After treatment, the levels of the HTT, MYB, or SMN2 mRNA targets were determined from each sample of cell lysate by cDNA synthesis followed by qPCR.
# • Cells-to-CT 1-step kit: ThermoFisher A25602, Cells-to-CT lysis reagent: ThermoFisher 4391851C, TaqMan™ Fast Virus 1-Step Master Mix: ThermoFisher 4444436 • GAPDH: VIC-PL, ThermoFisher 4326317E (Assay: Hs99999905_m1)—used for K562/suspension cell lines • GUSB: VIC-PL, ThermoFisher 4326320E (Assay: Hs99999908_m1)—used for K562/suspension cell lines • PPIA: VIC-PL, ThermoFisher 4326316E (Assay: Hs99999904_m1)—used for A673/adherent cell lines
# The A673 cell line was cultured in DMEM with 10% FBS. Cells were diluted with full growth media and plated in a 96-well plate (15,000 cells in 100 ul media per well). The plate was incubated at 37° C. with 5% CO2 for 24 hours to allow cells to adhere. An 11-point 3-fold serial dilution of the compounds was made in DMSO then diluted in media in an intermediate plate. Compounds were transferred from the intermediate plate to the cell plate with the top dose at a final concentration of 10 uM in the well. Final DMSO concentration was kept at or below 0.25%. The cell plate was returned to the incubator at 37° C. with 5% CO2 for an additional 24 hours.
# The K562 cell line was cultured in IMDM with 10% FBS. For K562, cells were diluted with full growth media and plated in either a 96-well plate (50,000 cells in 50 uL media per well) or a 384-well plate (8,000-40,000 cells in 45 uL media per well). An 11-point 3-fold serial dilution of the compounds were made in DMSO then diluted in media in an intermediate plate. Compound was transferred from the intermediate plate to the cell plate with the top dose at a final concentration of 10 uM in the well. Final DMSO concentration was kept at or below 0.25%. Final volume was 100 uL for 96-well plate and 50 uL for 384-well plate. The cell plate was then placed in an incubator at 37° C. with 5% CO2 for 24 hours.
# The cells were then gently washed with 50 uL-100 uL cold PBS before proceeding to addition of lysis buffer. 30 uL-50 μL of room temperature lysis buffer with DNAse I (and optionally RNAsin) was added to each well. Cells were shaken/mixed thoroughly at room temperature for 5-10 minutes for lysis to take place and then 3 uL-5 μL of room temperature stop solution was added and wells were shaken/mixed again. After 2-5 minutes, the cell lysate plate was transferred to ice for RT-qPCR reaction setup. The lysates could also be frozen at −80° C. for later use.
# In some cases, a direct lysis buffer was used. An appropriate volume of 3× lysis buffer (10 mM Tris, 150 mM NaCl, 1.5%-2.5% Igepal and 0.1-1 U/uL RNAsin, pH 7.4) was directly added to either K562 or A673 cells in media and mixed by pipetting 3 times. The plates were then incubated at room temperature with shaking/rocking for 20-50 minutes to allow for lysis to take place. After this time, the cell lysate plate was transferred to ice to set up for the RT-qPCR reactions. The lysates could also be frozen at −80° C. for later use. […]
# [1] = decrease in CJ mRNA levels, larger panel of genes, Table 3
# [2] = decrease in canonical junction mRNA, A673 or K562 cells, 24 hours treatment, Table 2
# [3] = A673 or K562 cells, 24 hours treatment, Table 2
Structure (SMILES),IC50 (Target C) [nM],IC50 (HTT mRNA; [1]) [nM],IC50 (HTT mRNA; [2]) [nM],AC50 (HTT mRNA; [3]) [nM]
"Cc1cn2nc(-c3cc(F)c4nn(C5CCN(CC6CC6)CC5)cc4c3)cc(C)c2n1 [Compound 149, 6-[2-[1-(cyclopropylmethyl)-4-piperidyl]-7-fluoro-indazol-5-yl]-2,8-dimethyl-imidazo[1,2-b]pyridazine]",< 100,< 100,< 100,< 100
"Cc1c(O)c(-c2ccc3nn(C4CCNCC4)cc3n2)cc2cn(C)nc12 [Compound 109, 2,7-dimethyl-5-[2-(4-piperidyl)pyrazolo[4,3-b]pyridin-5-yl]indazol-6-ol]",< 100,< 100,< 100,100 to 1000
Cc1cn2nc(-c3cc(F)c4nn(C5CCN(CCF)CC5)cc4c3)cc(C)c2n1 [Compound 152],100 to 1000,< 100,< 100,100 to 1000
"Cc1nc2c(F)cc(-c3cc(F)c4nn(C5CCNCC5)cc4c3)cc2o1 [Compound 136, 4-fluoro-6-[7-fluoro-2-(4-piperidyl)indazol-5-yl]-2-methyl-1,3-benzoxazole]",< 100,< 100,< 100,< 100
"Cc1cn2nc(-c3cc(F)c4nn(C5CCN(C)CC5)cc4c3)cc(C)c2n1 [Compound 150, 6-[7-fluoro-2-(1-methyl-4-piperidyl)indazol-5-yl]-2,8-dimethyl-imidazo[1,2-b]pyridazine]",< 100,< 100,< 100,< 100
"Cn1cc2cc(-c3cc(F)c4nn(C5CCNCC5)cc4c3)cc(C#N)c2n1 [Compound 130, 5-[7-fluoro-2-(4-piperidyl)indazol-5-yl]-2-methyl-indazole-7-carbonitrile]",< 100,< 100,< 100,< 100
"Cn1cc2cc(-c3cc(F)c4nn(C5CCNC6(CC6)C5)cc4c3)cc(F)c2n1 (stereo not drawn) [Compound 108, 2-(4-azaspiro[2.5]octan-7-yl)-7-fluoro-5-(7-fluoro-2-methyl-indazol-5-yl)indazole]",100 to 1000,100 to 1000,100 to 1000,100 to 1000
"Cc1cn2cc(-c3cc(F)c4nn(C5CCNCC5)cc4c3)cc(C)c2n1 [Compound 125, 5-(2,8-dimethylimidazo[1,2-a]pyridin-6-yl)-7-fluoro-2-(4-piperidyl)indazole]",< 100,100 to 1000,100 to 1000,100 to 1000
"Cc1cn2nc(-n3cc4cc(C5CCNCC5)cc(F)c4n3)cc(C)c2n1 [Compound 120, 6-[7-fluoro-5-(4-piperidyl)indazol-2-yl]-2,8-dimethyl-imidazo[1,2-b]pyridazine]",> 10000,1000 to 10000,1000 to 10000,> 10000
"Cc1cc(-n2cc3cc(N4CCNCC4)cc(F)c3n2)cc2cn(C)nc12 [Compound 117, 2-(2,7-dimethylindazol-5-yl)-7-fluoro-5-piperazin-1-yl-indazole]",> 10000,> 10000,> 10000,1000 to 10000
"Cc1cn2nc(-c3ccc4nn(C5CCNCC5)cc4c3)cc(C)c2n1 [Compound 192, 2,8-dimethyl-6-[2-(4-piperidyl)indazol-5-yl]imidazo[1,2-b]pyridazine]",100 to 1000,< 100,< 100,100 to 1000
"Cn1cc2cc(-c3ccc4nn(C5CCNCC5)cc4n3)c(O)c(F)c2n1 [Compound 107, 7-fluoro-2-methyl-5-[2-(4-piperidyl)pyrazolo [4,3-b]pyridin-5-yl]indazol-6-ol]",100 to 1000,100 to 1000,100 to 1000,100 to 1000
"Cc1cn2nc(-c3cc(F)c4nn([C@@H]5CCNC[C@H]5F)cc4c3)cc(C)c2n1 [Compound 168, 6-(7-fluoro-2-((3R,4R)-3-fluoropiperidin-4-yl)-2H-indazol-5-yl)-2,8-dimethylimidazo [1,2-b]pyridazine]",100 to 1000,< 100,< 100,100 to 1000
"Cc1cn2nc(-c3cc(F)c4nn(C5CCNC6(CCC6)C5)cc4c3)cc(C)c2n1 (stereo not drawn) [Compound 189, 6-[2-(5-azaspiro[3.5]nonan-8-yl)-7-fluoro-indazol-5-yl]-2,8-dimethyl-imidazo[1,2-b]pyridazine]",< 100,< 100,< 100,< 100
"Fc1cc(-c2ccc3ccncc3c2)cc2cn(C3CCNCC3)nc12 [Compound 158, 7-[7-fluoro-2-(4-piperidyl)indazol-5-yl]isoquinoline]",1000 to 10000,> 10000,> 10000,> 10000
"Cc1nc2c(C)cc(-c3cc(F)c4nn(C5CCNCC5)cc4c3)cc2o1 [Compound 137, 6-[7-fluoro-2-(4-piperidyl)indazol-5-yl]-2,4-dimethyl-1,3-benzoxazole]",< 100,< 100,< 100,< 100
Cc1cn2nc(-c3cc(F)c4nn([C@H]5CCNC6(CC6)C5)cc4c3)cc(C)c2n1 [Compound 172],< 100,< 100,< 100,< 100
Cn1cc2cc(-c3cc(Cl)c4nn(C5CCNCC5)cc4n3)c(O)cc2n1 [Compound 141],> 10000,> 10000,> 10000,> 10000
